The experiment can be described thus: cooling effect perceived on ingestion of the example compositions (microemulsion tea beverage, water ice, toothpaste). The experiment is classed as in vivo, human. The following applies: ingestion in the form of the compositions of Examples 1-3, relative to the same amount of the cooling active alone.

Regarding `COc1ccccc1N1CC=C(c2cccc([N+](=O)[O-])c2)NC1=O` [1-(2′-methoxyphenyl)-4-(3″-nitrophenyl)-1,2,3,6-tetrahydropyrimidine-2-one], the cooling effect perceived entry is on record as “prolonged the cooling effect perceived”.
Turning to `CC1CCC(C(C)C)C(O)C1` (centres unmarked) [menthol, 2-isopropyl-5-methyl-cyclohexanol], the cooling effect perceived entry is on record as “prolonged the cooling effect perceived”.

Values taken from patent US7192572B2, “Compound delivery systems” (Conopco, Inc., priority 2002, dated 2007).
